This is an account of results in patent publication US20160297820A1, “DIMERIZER COMPOUND” (AGENCY FOR SCIENCE, TECHNOLOGY AND RESEARCH, priority 2013, published 2016).

Where a chain is given by its changes, count along the chain named.

One experiment concerns the target T1, SNAP-eGFP and CLIP-eGFP (Homo sapiens, UniProt P16455, A121V/A127T/A154D/C150Q/C62A/E30R/G131K/G131N/G132T/G153L/G153S/K125A/K32I/L33F/M134L/M60I/N157G/N157P/Q115S/Q116H/R128A/R135D/R135S/S151G/S152D/S159E/S159L/Y114E).
T1 construct: host or cells: HEK293
T1 sequence (P16455 1-182 E30R/K32I/L33F/C62A/Q115S/Q116H/K125A/A127T/R128A/G131K/G132T/M134L/R135S/C150Q/S151G/S152D/G153L/A154D/N157G/S159E limits assumed): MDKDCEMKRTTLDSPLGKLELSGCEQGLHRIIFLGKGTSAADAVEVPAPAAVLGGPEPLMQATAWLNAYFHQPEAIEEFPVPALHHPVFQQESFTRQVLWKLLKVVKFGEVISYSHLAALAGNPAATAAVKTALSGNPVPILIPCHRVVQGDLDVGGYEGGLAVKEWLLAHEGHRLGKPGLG
T1 sequence (P16455 1-182 E30R/K32I/L33F/M60I/C62A/Y114E/Q115S/Q116H/A121V/K125A/A127T/R128A/G131N/G132T/M134L/R135D/C150Q/S151G/S152D/G153S/A154D/N157P/S159L limits assumed): T1 sequence (P16455 1-182 E30R/K32I/L33F/C62A/Q115S/Q116H/K125A/A127T/R128A/G131K/G132T/M134L/R135S/C150Q/S151G/S152D/G153L/A154D/N157G/S159E limits assumed) with M60I, Y114E, A121V, K131N, S135D, L153S, G157P, E159L
The experiment in a line: Dimerization of SNAP-eGFP and CLIP-eGFP in transfected HEK293 cells, western blot against eGFP. Type of experiment: cell-based. From the text:
Mammalian expression vectors for SNAP-eGFP and CLIP-eGFP were constructed from pSNAPf and pCLIPf (obtained from New England Biolabs of Singapore). eGFP was amplified using primers XhoI eGFP F and NotI eGFP R from pEGFP-NAD. The amplified DNA fragment was digested using XhoI/NotI and cloned into pSNAPf and pCLIPf for C-terminal fused eGFP-SNAP and eGFP-CLIP constructs respectively.
(§1) HEK293 cells were obtained from ATCC and grown in DMEM medium supplemented by 10% FCS and penicillin-streptomycin at 37° C. and 5% carbon dioxide. All experiments performed were carried out in 24 well plates seeded with 1×10^5 cells per well. Transfection was performed with Lipofectamine 2000 (Invitrogen™, Life Technologies of Singapore) as per manufacturer's instructions the day after seeding. Medium was changed the day after transfection.
The dimerizers (or Compounds 1 and 2) were dissolved to 1 mM in DMSO and diluted further with DMSO so all applications were done by adding 4 μl of DMSO with compound 1 dissolved in it to 400 μl of medium for each well. Compound 1 was added at the mentioned concentration two days after transfection and incubated for 3 to 6 hours before the cells were harvested with RIPA Lysis and Extraction buffer (from Thermo Fisher Scientific Inc of Illinois of the United States of America). Compound 2 was added at the mentioned concentration three days after transfection and incubated for a specified duration before the cells were harvested. […]
HEK293 cells were transfected with 250 ng of SNAP-eGFP and CLIP-eGFP. 3 days after transfection, increasing concentrations of 0.1 to 10 μM (0.1 μM, 0.4 μM, 1 μM, 4 μM, and 10 μM) of photocleavable dimerizer (Compound 2) were applied to the cells with fresh medium and the cells were harvested 6 hours after. […] The cleaved samples were equivalent volumes of uncleaved samples subjected to 365 nm illumination for 10 minutes.
(In general: A western blot detects proteins with antibodies after separation by electrophoresis.)

In experiment [1] the test system is SNAP-Gal4 and CLIP-AD2 (firefly luciferase under the control of 9 UAS elements). The experiment in a line: Luciferase up-regulation through dimerization of SNAP-Gal4 and CLIP-AD2 in transfected HEK293 cells (pGL4.35 reporter). Type of experiment: cell-based. The conditions noted are these: for luciferase expression after UV illumination: 20 μM, 96-well plate, 365 nm UV for 10 minutes just after application, harvested one day after, FIG. 8d; for luciferase production: HEK293, harvested 24 hours after treatment, FIG. 8a.
Excerpt: pGL4.35 (obtained from Promega of Singapore) contains firefly luciferase under the control of 9 UAS elements. SNAP was amplified from pSNAPf with SNAP-XhoI-C and SNAP NheI N; CLIP from pCLIPf with NheI NLC CLIP and SNAP-XhoI-C; Gal4 from pCMV-Gal4 with Gal4 HisTag BamHI and SNAP-Gal4 N; activation domains (AD2) from pHet-Act2-1 with SNAP-p65AD-HSF1AD N and p65 AD-HSF1AD HisTag BamHI. The individual PCR reactions were combined by SOEing PCR (Splicing by Overlap Extension) to make SNAP-Gal4 and CLIP-AD2 PCR products. These were then cloned into peGFP-C1 with the NheI and BamHI sites, removing eGFP in the process. Both constructs contained the nuclear localizing signal.
as §1
The dimerizers (or Compounds 1 and 2) were dissolved to 1 mM in DMSO and diluted further with DMSO so all applications were done by adding 4 μl of DMSO with compound 1 dissolved in it to 400 μl of medium for each well. Compound 1 was added at the mentioned concentration two days after transfection and incubated for 3 to 6 hours before the cells were harvested with RIPA Lysis and Extraction buffer (from Thermo Fisher Scientific Inc of Illinois of the United States of America). Compound 2 was added at the mentioned concentration three days after transfection and incubated for a specified duration before the cells were harvested.
HEK293 cells (in a 24-well plate) transfected with 400 ng pSNAP-Gal4 (Gal4 is a DNA-binding domain fused to SNAP), 200 ng pCLIP-AD2 (AD2 is a transcriptional activator fused to CLIP) and 100 ng pGL4.35 (GL4.35 is a luciferase reporter construct containing nine Gal4 binding motif for gene activation) were treated with stated amounts of either Compound 1 or 2 in 400 μl medium 1 day after transfection. Cells were harvested 24 hours after treatment and the levels of luciferase measured. FIG. 7 is a schematic diagram showing the up-regulation of luciferase.
Here, the cells were transfected as above and 8 μM of compound 2 was added to the cells one day after transfection. One day after, the cells were either illuminated with a fluorescent lamp or with a 365 nm UV lamp for 5 minutes. 0, 6, 24 or 48 hours later, the cells were harvested and the levels of luciferase measured.
The cells were transfected as above and 10 μM of compound 2 was added to the cells one day after transfection. One day after, the cells were illuminated with a 365 nm UV lamp for 10 minutes. […] Experiments were carried out in triplicates. The purpose of this experiment is to use a slightly higher amount of compound 2 and a longer UV irradiation time to optimize the linker cleavage.
HEK293 cells were transfected with the same ratio of plasmids in a 96-well plate and treated with 2% DMSO, 20 μM compound 1 or 20 μM compound 2 one day after transfection. Just after application, some of the cells were illuminated with 365 nm UV for 10 minutes. One day after, the cells were harvested.

As for `COc1cc(C(C)NC(=O)CCCC(=O)NCc2ccc(COc3nc(N)nc4[nH]cnc34)cc2)c([N+](=O)[O-])cc1OCCCC(=O)NCCOCCOCCOCCNC(=O)NCc1ccc(COc2nccc(N)n2)cc1` (stereo not drawn) [Compound 2], the “reversal of dimerization by 365 nm illumination” value at SNAP-eGFP and CLIP-eGFP (365 nm illumination for 10 minutes, FIG. 6d) was “partially reversing dimerization”. In addition, the “induction of dimerization of SNAP-eGFP and CLIP-eGFP” value on SNAP-eGFP and CLIP-eGFP (HEK293, 0.1 to 10 μM, harvested 6 hours after, FIG. 6d) was “could induce dimerization at lower concentrations than compound 1”. The “expression of luciferase, UV illumination compared to fluorescent lamp” value in experiment [1] (8 μM, 365 nm UV lamp for 5 minutes, harvested 0, 6, 24 or 48 hours later, FIG. 8b) is reported as “lower expression of luciferase”. In addition, in experiment [1], the “luciferase expression after UV illumination” value is given as “decreased luciferase expression” and the luciferase production result was “luciferase was produced”. For the same molecule, the “luciferase upregulation after exposure to UV illumination” value in experiment [1] (FIG. 8b to FIG. 8d) is reported as “less effective”.

As for `Nc1ccnc(OCc2ccc(CNC(=O)NCCOCCOCCOCCNC(=O)CCCC(=O)NCc3ccc(COc4nc(N)nc5[nH]cnc45)cc3)cc2)n1` [Compound 1], on SNAP-eGFP and CLIP-eGFP (HEK293, 5 μM, FIG. 6c), the “stability of the dimer in the cell (no change in dimerization)” value is no less than 3 days, the “time after application to maximal dimerization” value was no more than 24 h and the “time after application to near saturation of dimerization” value turned out to be 3 h. Further, the “dimerization of SNAP-eGFP and CLIP-eGFP (specificity)” value at SNAP-eGFP and CLIP-eGFP (HEK293, SNAP-eGFP and CLIP-eGFP together vs either alone, 0, 5 or 20 μM, harvested 6 hours after, FIG. 6a) is on record as “heterodimerization occurred specifically”. On SNAP-eGFP and CLIP-eGFP (HEK293 cells in culture, applied with DMSO), the cell penetration entry is “could penetrate cells in culture”. The “concentration at which dimerization occurs” value at SNAP-eGFP and CLIP-eGFP (HEK cells, 0.1 nM to 10,000 nM applied, harvested 3 hours after, FIG. 6b) was determined as 400 nM. Besides, the “dose dependence of heterodimerization” value on SNAP-eGFP and CLIP-eGFP (HEK cells, 0.1 nM to 10,000 nM, harvested 3 hours after, FIG. 6b) was “dose-dependent manner”. In addition, in experiment [1], the “luciferase expression after UV illumination” value was “did not” and the luciferase production entry is reported as “produced in a dose-dependent fashion”.
